Results taken from patent US20120136005A1, “E[…] THE TREATMENT OF ANXIETY” (MERZ PHARMA GmbH & CO. KGaA, priority 2009, published 2012).
Entries after “also recorded” stand apart in the source; their conditions may differ.

Legend:
[1] = target: T1, human serotonin 5-HT1a receptor (Homo sapiens, UniProt P08908); assay: GTPγS assay, recombinant CHO-K1 membranes; assay type: biochemical; settings: human recombinant cell lines; FIG. 1
T1 construct: expressed in transfected cells; host or cells: CHO-K1 (membranes)
T1 sequence (P08908 1-422): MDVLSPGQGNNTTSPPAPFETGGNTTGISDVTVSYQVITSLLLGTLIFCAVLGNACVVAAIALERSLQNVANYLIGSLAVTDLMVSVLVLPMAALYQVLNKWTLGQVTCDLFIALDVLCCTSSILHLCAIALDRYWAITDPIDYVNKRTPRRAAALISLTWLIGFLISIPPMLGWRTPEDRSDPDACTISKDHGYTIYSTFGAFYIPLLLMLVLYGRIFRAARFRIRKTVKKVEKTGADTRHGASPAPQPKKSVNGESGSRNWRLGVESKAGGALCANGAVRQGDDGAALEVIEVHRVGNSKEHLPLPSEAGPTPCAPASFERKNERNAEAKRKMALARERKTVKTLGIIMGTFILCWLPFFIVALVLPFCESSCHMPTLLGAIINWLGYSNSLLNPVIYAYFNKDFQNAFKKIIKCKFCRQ
Procedure: (§1) Eltoprazine was tested for activity on the human serotonin 5-HT1a and 5-HT1b receptors using a GTPγS assay. Recombinant membranes obtained from CHO-K1 cells expressing either the 5-HT1a or 5-HT1b receptors were mixed with GDP (volume:volume) and incubated for at least 15 min on ice. In parallel, GTPγ[35S] was mixed with the beads (volume:volume) just before starting the reaction. The following reagents were successively added in the wells of an Optiplate (Perkin Elmer): 50 μl of test compound, 20 μl of the membranes:GDP mix, 10 μl of assay buffer (for agonist testing) and 20 μl of the GTPγ[35S]:beads mix. The plates were covered with a top seal, shaken on an orbital shaker for 2 min, and then incubated for 1 h at room temperature. Then the plates were centrifuged for 10 min at 2000 rpm, incubated at room temperature 1 h and counted for 1 min/well with a PerkinElmer TopCount reader.

[2] = target: T2, human serotonin 5-HT1b receptor (Homo sapiens, UniProt P28222); assay: GTPγS assay, recombinant CHO-K1 membranes; assay type: biochemical; settings: human recombinant cell lines; FIG. 1
T2 construct: expressed in transfected cells; host or cells: CHO-K1 (membranes)
T2 sequence (P28222 whole entry): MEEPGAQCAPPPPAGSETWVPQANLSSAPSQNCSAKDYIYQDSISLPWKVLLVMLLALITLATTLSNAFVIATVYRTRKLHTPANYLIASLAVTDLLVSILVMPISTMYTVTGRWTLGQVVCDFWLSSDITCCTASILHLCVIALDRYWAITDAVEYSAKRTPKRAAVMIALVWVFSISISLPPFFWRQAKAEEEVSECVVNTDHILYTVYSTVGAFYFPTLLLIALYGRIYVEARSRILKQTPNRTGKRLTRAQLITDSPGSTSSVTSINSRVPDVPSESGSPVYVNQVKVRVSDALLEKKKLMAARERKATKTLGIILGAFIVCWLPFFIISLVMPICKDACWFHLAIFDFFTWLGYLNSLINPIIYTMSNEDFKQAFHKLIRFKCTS
Procedure: as §1

[3] = system: Sprague-Dawley rats; assay: Contextual fear conditioning; assay type: in vivo; settings: acute s.c. 0.078 to 1.25 mg/kg, 60 min before the test; FIG. 4
Procedure: (§2) For contextual fear conditioning, open field, fear potentiated startle and elevate plus maze, experimentally naive adult male Sprague-Dawley rats (250-300 g; Janvier, France) were housed in groups of four per cage. Colony room temperature and humidity were maintained respectively at 20±1° C. and 60±3%. Food and water were available ad libitum and the animals were kept under an alternating 12 h/12 h day-night cycle (lights on at 07.00) for at least 6 days before the experiments were started. All experiments were conducted during the light period of the day-night cycle. For the Vogel test, male experimentally naive Wistar rats (180-220 g, State Breeding Farm “Rappolovo”, St. Petersburg, Russia; N=109) were used. Each animal was used only once.
Eltoprazine hydrochloride was dissolved in sterile water. […]
For training and testing, subjects were placed in test cages (30 cm wide, 29 cm high and 25 cm deep) equipped with a grid floor consisting of 18 stainless steel bars (3 mm ID). […] 24 h after conditioning, subjects are placed back in the test cages and freezing is recorded for a period of 5 min. […]
Percent of freezing during the 5 min expression test on day 2 is taken for statistical analysis. Data are analysed by one-way ANOVA on ranks followed by rank sum tests.

[4] = system: Wistar rats; assay: Shock-suppressed drinking (Vogel) test; assay type: in vivo; settings: acute s.c., 30 min before the test; not statistically significant; FIG. 7
Procedure: as §2
Eltoprazine hydrochloride was dissolved in sterile water. Administration of eltoprazine or vehicle (sterile water) was done s.c. (0.078 to 1.25 mg/kg) once, 60 minutes (30 min in the Vogel test) prior to start of the behavioural assay.
The apparatus consisted of 4 identical standard operant chambers with grid metal floor. Water bottle spout was protruded through the wall and connected to a shock device. […] Latency to start drinking was registered, and total drinking time and the licks number were recorded during 5 min timed from the first lick of the bottle spout. […]

[5] = system: 5-HT1a receptor; settings: Schipper et al. 1990; cited from earlier work

## c1cc2c(c(N3CCNCC3)c1)OCCO2 [eltoprazine, 1-(2,3-dihydro-1,4-benzodioxin-5-yl)piperazine]
[1]
  functional activity at 5-HT1a receptor: partial agonistic action
[2]
  functional activity at 5-HT1b receptor: partial agonistic action
[3]
  time spent freezing during re-exposure to the conditioning context: dose-dependently induced anxiolytic-like effects; also recorded: very strong anxiolytic effect
[4]
  number of accepted punishments (shocks received) in the Vogel test: tendency to increase; also recorded: trend for anxiolytic activity
[5]
  effect on 5-HT1a receptor: agonistic effect
